The values below come from US20130045983A1, “HSP90 INHIBITORS FOR THERAPEUTIC TREATMENT” (Novartis AG, priority 2008, published 2013).

A word on the IC50: it is the midpoint of a concentration-inhibition curve.

Type in all cases: cell-based
One assay concerns LEXF K562. Description: Clonogenic assay, LEXF K562. Particulars: Homo sapiens, Chronic myelogenous leukemia, soft agar, read-out: IC50 (colony formation). As for the experimental part:
(§1) The anticancer activity of (R)-2-amino-7-[2-(6-methoxy-pyridin-2-yl)-phenyl]-4-methyl-7,8-dihydro-6H-pyrido[4,3-d]pyrimidin-5-one is evaluated in 30 human tumor xenografts in vitro using a clonogenic assay. In this assay, human cells derived from cancer patients are evaluated for the capacity of (R)-2-amino-7-[2-(6-methoxy-pyridin-2-yl)-phenyl]-4-methyl-7,8-dihydro-6H-pyrido[4,3-d]pyrimidin-5-one to inhibit the formation of 3 dimensional colonies. […] The tumor xenografts which have never been cultured in cell culture plastic dishes are isolated from nude mice. Tumor cell suspensions are prepared and incubated in 24 well plates containing layers of soft agar. Under these conditions a special subpopulation of cells selectively grows to colonies. (R)-2-amino-7-[2-(6-methoxy-pyridin-2-yl)-phenyl]-4-methyl-7,8-dihydro-6H-pyrido[4,3-d]pyrimidin-5one is tested in 6 concentrations up to 1000 nM. The tumor test panel comprises 1 to 10 models of 12 different human tumor types, which were bladder cancer, colon, gastric, non small cell lung (adeno, squamous cell, and large cell), small cell lung, mammary, ovary, and prostate cancer, as well as leukemia, lymphoma, melanoma, and sarcoma. Antitumor effects are recorded as inhibition of colony formation in relation to untreated controls. […]

The next assay has as its system BXF 1258. In words: Clonogenic assay, BXF 1258. As to conditions: Homo sapiens, Bladder, Transitional cell carcinoma, soft agar, read-out: IC50 (colony formation). As for the experimental part:
as §1

The subject of the next assay is GXF 209. In words: Clonogenic assay, GXF 209. Particulars: Homo sapiens, Stomach, Signet-ring cell carcinoma, soft agar, read-out: IC50 (colony formation). On the procedure: as §1

For the compound `COc1cccc(-c2ccccc2[C@H]2Cc3nc(N)nc(C)c3C(=O)N2)n1` [(R)-2-amino-7-[2-(6-methoxy-pyridin-2-yl)-phenyl]-4-methyl-7,8-dihydro-6H-pyrido[4,3-d]pyrimidin-5-one], the IC50 in the assay on LEXF K562 was found to be 0.013 µM; in the assay on BXF 1258, 0.316 µM; with GXF 209, 0.028 µM.
